Results: paper PMC12102759 (Protein Science : A Publication of the Protein Society, 2025)

Test system: G3BP1 NFT2
Assay type: binding, human
Details: library DMS-CoV, bait G3BP1 NFT2, prey N, listed as aa = residue placed at this position, column sums to 1

Sequence: RNAPRITFGGPSDSTG T7K (RNAPRIKFGGPSDSTG)
- DMS PSSM value, T (position 7) (peptide RNAPRITFGGPSDSTG): 0

Sequence: RNAPRITFGGPSDSTG I6T (RNAPRTTFGGPSDSTG)
- DMS PSSM value, I (position 6) (peptide RNAPRITFGGPSDSTG): 0

Sequence: APRITFGGPSDSTGSN S15F (APRITFGGPSDSTGFN)
- DMS PSSM value, S (position 15) (peptide APRITFGGPSDSTGSN): 0.2174

Sequence: APRITFGGPSDSTGSN G7A (APRITFAGPSDSTGSN)
- DMS PSSM value, G (position 7) (peptide APRITFGGPSDSTGSN): 0

Sequence: APRITFGGPSDSTGSN G7V (APRITFVGPSDSTGSN)
- DMS PSSM value, G (position 7) (peptide APRITFGGPSDSTGSN): 0

Sequence: APRITFGGPSDSTGSN P9Q (APRITFGGQSDSTGSN)
- DMS PSSM value, P (position 9) (peptide APRITFGGPSDSTGSN): 0

Sequence: RNAPRITFGGPSDSTG G10M (RNAPRITFGMPSDSTG)
- DMS PSSM value, G (position 10) (peptide RNAPRITFGGPSDSTG): 0

Sequence: RNAPRITFGGPSDSTG P4T (RNATRITFGGPSDSTG)
- DMS PSSM value, P (position 4) (peptide RNAPRITFGGPSDSTG): 0

Sequence: APRITFGGPSDSTGSN P2R (ARRITFGGPSDSTGSN)
- DMS PSSM value, P (position 2) (peptide APRITFGGPSDSTGSN): 0

Sequence: APRITFGGPSDSTGSN T5L (APRILFGGPSDSTGSN)
- DMS PSSM value, T (position 5) (peptide APRITFGGPSDSTGSN): 0.04693

Sequence: APRITFGGPSDSTGSN S10M (APRITFGGPMDSTGSN)
- DMS PSSM value, S (position 10) (peptide APRITFGGPSDSTGSN): 0.2077

Sequence: APRITFGGPSDSTGSN T13H (APRITFGGPSDSHGSN)
- DMS PSSM value, T (position 13) (peptide APRITFGGPSDSTGSN): 0.0006139

Sequence: APRITFGGPSDSTGSN R3K (APKITFGGPSDSTGSN)
- DMS PSSM value, R (position 3) (peptide APRITFGGPSDSTGSN): 0.0004363

Sequence: APRITFGGPSDSTGSN D11N (APRITFGGPSNSTGSN)
- DMS PSSM value, D (position 11) (peptide APRITFGGPSDSTGSN): 0.02182

Sequence: APRITFGGPSDSTGSN I4G (APRGTFGGPSDSTGSN)
- DMS PSSM value, I (position 4) (peptide APRITFGGPSDSTGSN): 0

Sequence: RNAPRITFGGPSDSTG T15Y (RNAPRITFGGPSDSYG)
- DMS PSSM value, T (position 15) (peptide RNAPRITFGGPSDSTG): 0

Sequence: RNAPRITFGGPSDSTG T7I (RNAPRIIFGGPSDSTG)
- DMS PSSM value, T (position 7) (peptide RNAPRITFGGPSDSTG): 0

Sequence: APRITFGGPSDSTGSN S10A (APRITFGGPADSTGSN)
- DMS PSSM value, S (position 10) (peptide APRITFGGPSDSTGSN): 0.0189

Sequence: APRITFGGPSDSTGSN G8Q (APRITFGQPSDSTGSN)
- DMS PSSM value, G (position 8) (peptide APRITFGGPSDSTGSN): 0

Sequence: RNAPRITFGGPSDSTG R5F (RNAPFITFGGPSDSTG)
- DMS PSSM value, R (position 5) (peptide RNAPRITFGGPSDSTG): 0

Sequence: RNAPRITFGGPSDSTG G9S (RNAPRITFSGPSDSTG)
- DMS PSSM value, G (position 9) (peptide RNAPRITFGGPSDSTG): 0

Sequence: RNAPRITFGGPSDSTG T15A (RNAPRITFGGPSDSAG)
- DMS PSSM value, T (position 15) (peptide RNAPRITFGGPSDSTG): 0

Sequence: APRITFGGPSDSTGSN
- DMS PSSM value, A (position 1) (peptide APRITFGGPSDSTGSN): 0.1536
- DMS PSSM value, D (position 11) (peptide APRITFGGPSDSTGSN): 0.2538
- DMS PSSM value, F (position 6) (peptide APRITFGGPSDSTGSN): 0.991
- DMS PSSM value, G (position 7) (peptide APRITFGGPSDSTGSN): 0.9101
- DMS PSSM value, G (position 8) (peptide APRITFGGPSDSTGSN): 0.05897
- DMS PSSM value, G (position 14) (peptide APRITFGGPSDSTGSN): 0.009135
- DMS PSSM value, I (position 4) (peptide APRITFGGPSDSTGSN): 0.9676
- DMS PSSM value, P (position 2) (peptide APRITFGGPSDSTGSN): 0.199
- DMS PSSM value, P (position 9) (peptide APRITFGGPSDSTGSN): 0.679
- DMS PSSM value, R (position 3) (peptide APRITFGGPSDSTGSN): 0.004269
- DMS PSSM value, S (position 10) (peptide APRITFGGPSDSTGSN): 0.07098
- DMS PSSM value, S (position 12) (peptide APRITFGGPSDSTGSN): 0.1222
- DMS PSSM value, S (position 15) (peptide APRITFGGPSDSTGSN): 0.03905
- DMS PSSM value, T (position 5) (peptide APRITFGGPSDSTGSN): 0.4961
- DMS PSSM value, T (position 13) (peptide APRITFGGPSDSTGSN): 0.03355

Sequence: RNAPRITFGGPSDSTG R5P (RNAPPITFGGPSDSTG)
- DMS PSSM value, R (position 5) (peptide RNAPRITFGGPSDSTG): 0.5972

Sequence: RNAPRITFGGPSDSTG I6G (RNAPRGTFGGPSDSTG)
- DMS PSSM value, I (position 6) (peptide RNAPRITFGGPSDSTG): 0

Sequence: RNAPRITFGGPSDSTG T15P (RNAPRITFGGPSDSPG)
- DMS PSSM value, T (position 15) (peptide RNAPRITFGGPSDSTG): 0

Sequence: RNAPRITFGGPSDSTG T15L (RNAPRITFGGPSDSLG)
- DMS PSSM value, T (position 15) (peptide RNAPRITFGGPSDSTG): 0

Sequence: APRITFGGPSDSTGSN R3F (APFITFGGPSDSTGSN)
- DMS PSSM value, R (position 3) (peptide APRITFGGPSDSTGSN): 0.003092

Sequence: APRITFGGPSDSTGSN R3D (APDITFGGPSDSTGSN)
- DMS PSSM value, R (position 3) (peptide APRITFGGPSDSTGSN): 9.037e-5

Sequence: RNAPRITFGGPSDSTG N2F (RFAPRITFGGPSDSTG)
- DMS PSSM value, N (position 2) (peptide RNAPRITFGGPSDSTG): 0

Sequence: RNAPRITFGGPSDSTG P4M (RNAMRITFGGPSDSTG)
- DMS PSSM value, P (position 4) (peptide RNAPRITFGGPSDSTG): 0

Sequence: RNAPRITFGGPSDSTG R5V (RNAPVITFGGPSDSTG)
- DMS PSSM value, R (position 5) (peptide RNAPRITFGGPSDSTG): 0.006458

Sequence: APRITFGGPSDSTGSN T5H (APRIHFGGPSDSTGSN)
- DMS PSSM value, T (position 5) (peptide APRITFGGPSDSTGSN): 0

Sequence: APRITFGGPSDSTGSN F6E (APRITEGGPSDSTGSN)
- DMS PSSM value, F (position 6) (peptide APRITFGGPSDSTGSN): 0

Sequence: APRITFGGPSDSTGSN R3I (APIITFGGPSDSTGSN)
- DMS PSSM value, R (position 3) (peptide APRITFGGPSDSTGSN): 0.2843

Sequence: RNAPRITFGGPSDSTG T7M (RNAPRIMFGGPSDSTG)
- DMS PSSM value, T (position 7) (peptide RNAPRITFGGPSDSTG): 0

Sequence: RNAPRITFGGPSDSTG T15V (RNAPRITFGGPSDSVG)
- DMS PSSM value, T (position 15) (peptide RNAPRITFGGPSDSTG): 0

Sequence: RNAPRITFGGPSDSTG D13L (RNAPRITFGGPSLSTG)
- DMS PSSM value, D (position 13) (peptide RNAPRITFGGPSDSTG): 0

Sequence: APRITFGGPSDSTGSN T13F (APRITFGGPSDSFGSN)
- DMS PSSM value, T (position 13) (peptide APRITFGGPSDSTGSN): 0.002251

Sequence: RNAPRITFGGPSDSTG I6H (RNAPRHTFGGPSDSTG)
- DMS PSSM value, I (position 6) (peptide RNAPRITFGGPSDSTG): 0

Sequence: APRITFGGPSDSTGSN R3Y (APYITFGGPSDSTGSN)
- DMS PSSM value, R (position 3) (peptide APRITFGGPSDSTGSN): 0.03984

Sequence: RNAPRITFGGPSDSTG G9D (RNAPRITFDGPSDSTG)
- DMS PSSM value, G (position 9) (peptide RNAPRITFGGPSDSTG): 1
